Test results from ChEMBL document CHEMBL1201862, “PubChem BioAssay data set” (2004).
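All cell lines were grown in 96-well plates and treated with compound for 48 hours. The concentration for 50% growth inhibition is given as GI50.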 Activity calls are given as the source filed them. Cut-off read from the data, not from the text of the source: active = GI50 up to about 1.1 µM and inactive = higher.

Experiments:
Assay in all cases: NCI-60 cell line screen, 48 h
NCI-H226 = test system: NCI-H226
UACC-257 = test system: UACC-257
CAKI-1 = test system: CAKI-1
PC-3 = test system: PC-3
COLO 205 = test system: COLO 205
NCI-H23 = test system: NCI-H23
Hs-578T = test system: Hs-578T
BT-549 = test system: BT-549
HT-29 = test system: HT-29
786-0 = test system: 786-0
A498 = test system: A498
KM12 = test system: KM12
M14 = test system: M14
SK-MEL-28 = test system: SK-MEL-28
MDA-MB-435 = test system: MDA-MB-435
LOX IMVI = test system: LOX IMVI
DU-145 = test system: DU-145
T47D = test system: T47D
IGROV-1 = test system: IGROV-1
SK-MEL-2 = test system: SK-MEL-2
SF-295 = test system: SF-295
RXF 393 = test system: RXF 393
EKVX = test system: EKVX
OVCAR-4 = test system: OVCAR-4
MCF7 = test system: MCF7
HCC 2998 = test system: HCC 2998
SF-539 = test system: SF-539
HCT-15 = test system: HCT-15
TK-10 = test system: TK-10
SNB-75 = test system: SNB-75
SK-MEL-5 = test system: SK-MEL-5
SW-620 = test system: SW-620
HOP-62 = test system: HOP-62
HOP-92 = test system: HOP-92
OVCAR-5 = test system: OVCAR-5
HCT-116 = test system: HCT-116
SF-268 = test system: SF-268
A549 = test system: A549
SK-OV-3 = test system: SK-OV-3
MDA-MB-231 = test system: MDA-MB-231
K562 = test system: K562
MDA-N = test system: MDA-N
ACHN = test system: ACHN
UO-31 = test system: UO-31
OVCAR-3 = test system: OVCAR-3
CCRF-CEM = test system: CCRF-CEM
SN12C = test system: SN12C
UACC-62 = test system: UACC-62
NCI-H522 = test system: NCI-H522
OVCAR-8 = test system: OVCAR-8
NCI-H460 = test system: NCI-H460
RPMI-8226 = test system: RPMI-8226
NCI/ADR-RES = test system: NCI/ADR-RES
Malme-3M = test system: Malme-3M
SR = test system: SR
U-251 = test system: U-251
HL-60 = test system: HL-60
SNB-19 = test system: SNB-19
MOLT-4 = test system: MOLT-4

## OCCn1cnc2c(SCc3ccccc3)ncnc21
NCI-H226
  GI50: > 100 µM (inactive)
UACC-257
  GI50: > 100 µM (inactive)
CAKI-1
  GI50: > 100 µM (inactive)
PC-3
  GI50: 61 µM (inactive)
COLO 205
  GI50: 95.5 µM (inactive)
NCI-H23
  GI50: > 100 µM (inactive)
Hs-578T
  GI50: 69.7 µM (inactive)
BT-549
  GI50: 95.7 µM (inactive)
HT-29
  GI50: > 100 µM (inactive)
786-0
  GI50: > 100 µM (inactive)
A498
  GI50: > 100 µM (inactive)
KM12
  GI50: > 100 µM (inactive)
M14
  GI50: > 100 µM (inactive)
SK-MEL-28
  GI50: > 100 µM (inactive)
MDA-MB-435
  GI50: > 100 µM (inactive)
LOX IMVI
  GI50: 61.1 µM (inactive)
DU-145
  GI50: > 100 µM (inactive)
T47D
  GI50: > 100 µM (inactive)
IGROV-1
  GI50: > 100 µM (inactive)
SK-MEL-2
  GI50: > 100 µM (inactive)
SF-295
  GI50: > 100 µM (inactive)
RXF 393
  GI50: > 100 µM (inactive)
EKVX
  GI50: > 100 µM (inactive)
OVCAR-4
  GI50: > 100 µM (inactive)
MCF7
  GI50: > 100 µM (inactive)
HCC 2998
  GI50: > 100 µM (inactive)
SF-539
  GI50: 87.5 µM (inactive)
HCT-15
  GI50: 11.9 µM
TK-10
  GI50: > 100 µM (inactive)
SNB-75
  GI50: > 100 µM (inactive)
SK-MEL-5
  GI50: > 100 µM (inactive)
SW-620
  GI50: > 100 µM (inactive)
HOP-62
  GI50: > 100 µM (inactive)
HOP-92
  GI50: > 100 µM (inactive)
OVCAR-5
  GI50: > 100 µM (inactive)
HCT-116
  GI50: 48.8 µM (inactive)
SF-268
  GI50: 71.8 µM (inactive)
A549
  GI50: > 100 µM (inactive)
SK-OV-3
  GI50: > 100 µM (inactive)
MDA-MB-231
  GI50: > 100 µM (inactive)
K562
  GI50: 79.4 µM (inactive)
MDA-N
  GI50: > 100 µM (inactive)
ACHN
  GI50: > 100 µM (inactive)
UO-31
  GI50: > 100 µM (inactive)
OVCAR-3
  GI50: > 100 µM (inactive)
CCRF-CEM
  GI50: 39.1 µM (inactive)
SN12C
  GI50: > 100 µM (inactive)
UACC-62
  GI50: > 100 µM (inactive)
NCI-H522
  GI50: 97.9 µM (inactive)
OVCAR-8
  GI50: > 100 µM (inactive)
NCI-H460
  GI50: 19.6 µM (inactive)
RPMI-8226
  GI50: 97.5 µM (inactive)
NCI/ADR-RES
  GI50: > 100 µM (inactive)
Malme-3M
  GI50: > 100 µM (inactive)
SR
  GI50: 19.5 µM (inactive)
U-251
  GI50: 52.4 µM (inactive)
HL-60
  GI50: 68.1 µM (inactive)
SNB-19
  GI50: > 100 µM (inactive)

## COC(=O)c1cc2c3c(c1)Oc1cc(C(=O)OC)cc4c1C3c1c(cc(C(=O)OC)cc1O4)O2
NCI-H226
  GI50: 3.82 µM (inactive)
UACC-257
  GI50: 27.4 µM (inactive)
CAKI-1
  GI50: 14 µM (inactive)
PC-3
  GI50: 10.4 µM (inactive)
COLO 205
  GI50: 23.7 µM (inactive)
NCI-H23
  GI50: 25.1 µM (inactive)
Hs-578T
  GI50: 15.3 µM (inactive)
BT-549
  GI50: 20.5 µM (inactive)
HT-29
  GI50: 0.802 µM (active)
786-0
  GI50: 11 µM (inactive)
A498
  GI50: > 76.2 µM (inactive)
KM12
  GI50: 10.1 µM (inactive)
M14
  GI50: 26.6 µM (inactive)
SK-MEL-28
  GI50: 34 µM (inactive)
MDA-MB-435
  GI50: 9.68 µM (inactive)
LOX IMVI
  GI50: 5.92 µM (inactive)
DU-145
  GI50: 5.14 µM (inactive)
T47D
  GI50: 20 µM (inactive)
IGROV-1
  GI50: 11.9 µM (inactive)
SK-MEL-2
  GI50: 36.6 µM (inactive)
SF-295
  GI50: 10.6 µM (inactive)
RXF 393
  GI50: 0.406 µM (active)
EKVX
  GI50: 16.4 µM (inactive)
OVCAR-4
  GI50: 34 µM (inactive)
MOLT-4
  GI50: 7.41 µM (inactive)
MCF7
  GI50: 10.6 µM (inactive)
HCC 2998
  GI50: 31.8 µM (inactive)
SF-539
  GI50: 15.1 µM (inactive)
HCT-15
  GI50: > 32 µM
TK-10
  GI50: 15.3 µM (inactive)
SNB-75
  GI50: 5.81 µM (inactive)
SK-MEL-5
  GI50: 2.92 µM (inactive)
SW-620
  GI50: 35 µM (inactive)
HOP-62
  GI50: 11.4 µM (inactive)
HOP-92
  GI50: 19.4 µM (inactive)
OVCAR-5
  GI50: 24.5 µM (inactive)
HCT-116
  GI50: 18.6 µM (inactive)
SF-268
  GI50: 9.18 µM (inactive)
A549
  GI50: 12.6 µM (inactive)
SK-OV-3
  GI50: 16.6 µM (inactive)
MDA-MB-231
  GI50: 17.1 µM (inactive)
K562
  GI50: 11.5 µM (inactive)
MDA-N
  GI50: 8.22 µM (inactive)
ACHN
  GI50: 11.7 µM (inactive)
UO-31
  GI50: 21 µM (inactive)
OVCAR-3
  GI50: 10.3 µM (inactive)
CCRF-CEM
  GI50: 11.4 µM (inactive)
SN12C
  GI50: 32.7 µM (inactive)
UACC-62
  GI50: 16.9 µM (inactive)
NCI-H522
  GI50: 3.19 µM (inactive)
NCI-H460
  GI50: 23.8 µM (inactive)
RPMI-8226
  GI50: 6.44 µM (inactive)
NCI/ADR-RES
  GI50: 0.163 µM (active)
Malme-3M
  GI50: 8.99 µM (inactive)
SR
  GI50: 13.8 µM (inactive)
U-251
  GI50: 12.3 µM (inactive)
HL-60
  GI50: 3.03 µM (inactive)
SNB-19
  GI50: 20 µM (inactive)
